For the test, the target named is HIF Prolyl hydroxylases 2 (PHD2) (Homo sapiens (Human), UniProt Q9GZT9). Description: Inhibitory effect on PHD2 by fluorescence polarization (HIF-1α / VBC complex interaction). It is filed as biochemical. Particulars: PHD2 0.5 μg/μl, FAM-HIF (556-575) 1 μM, FP readout with GST-VBC complex. As to the method: Biological Example 2: Detection of Inhibitory Effect of the Compounds on PHD2 (IC50)
The interaction between hypoxia-inducible factor HIF-1α and VBC complex (von Hippel-Lindau protein-Elongin B-Elongin C, VBC) was detected by Fluorescence polarization (FP) method, to measure the enzyme inhibitory activity of the HIF Prolyl hydroxylases 2 (PHD2) inhibitor compounds.
To a NETN (20 mM Tris.HCl, 100 mM NaCl, 1 mM EDTA, 0.5% NP-40, 1 mM PMSF) buffer containing 200 μM ascorbic acid, 20 μM α-ketoglutaric acid, 100 μM FeCl2 was added FAM-HIF (556-575) at a final concentration of 1 μM in the dark. Subsequently, the desired concentration of the test compound or the positive compound was added (the compound was replaced by the buffer in the negative control and the positive control). Finally, PHD2 was added at a final concentration of 0.5 μg/μl (PHD2 was replaced by the buffer in the negative control). They were mixed well and allowed to stand at room temperature for 30 minutes in the dark followed by 95° C. water bath for 1 minute, and then the reaction was terminated. After the temperature drops to room temperature, the sample was prepared well for use. EBC buffer (50 mM Tris.HCl, 120 mM NaCl, 0.5% NP-40) was added to the corresponding wells of a black 96-well test plate. A GST-VBC complex was added to the corresponding test wells at a final concentration of 300 nM (using the wells containing only EBC buffer as blank wells). Subsequently, the corresponding PHD2 prolyl hydroxylation reaction sample was added in the dark as a substrate with a final concentration of 100 nM. After mixing well, the lateral and longitudinal fluorescence intensity values were measured using a full-wavelength multifunctional microplate reader (TECAN infinite M1000) at an excitation wavelength of […] and an emission wavelength of 518 nm.
The fluorescence polarization (mP) was calculated: mP=1000×(lateral value−G factor×longitudinal value)/(lateral value+G factor×longitudinal value)
wherein, lateral value=lateral fluorescence intensity value of test well−lateral fluorescence intensity value of blank well, • longitudinal value=longitudinal fluorescence intensity value of test well−longitudinal fluorescence intensity value of blank well,
PHD2 inhibition rate (%) of the test compound was calculated according to the following formula: Inhibition rate (%)=1−(mP test well−mP negative control well)/(mP positive control well−mP negative control well).
The IC50 was calculated using the non-linear regression data analysis method of Graphpad Prism 4.0 software ([…]).

This note sets out measurements from patent publication US10149841B2, “Compound of 3-hydroxyl pyridine, preparation method thereof and pharmaceutical use thereof” (SHENYANG SUNSHINE PHARMACEUTICAL CO. LTD., priority 2015, dated 2018).

Sequence of HIF Prolyl hydroxylases 2 (PHD2) (Q9GZT9 whole entry, species assumed): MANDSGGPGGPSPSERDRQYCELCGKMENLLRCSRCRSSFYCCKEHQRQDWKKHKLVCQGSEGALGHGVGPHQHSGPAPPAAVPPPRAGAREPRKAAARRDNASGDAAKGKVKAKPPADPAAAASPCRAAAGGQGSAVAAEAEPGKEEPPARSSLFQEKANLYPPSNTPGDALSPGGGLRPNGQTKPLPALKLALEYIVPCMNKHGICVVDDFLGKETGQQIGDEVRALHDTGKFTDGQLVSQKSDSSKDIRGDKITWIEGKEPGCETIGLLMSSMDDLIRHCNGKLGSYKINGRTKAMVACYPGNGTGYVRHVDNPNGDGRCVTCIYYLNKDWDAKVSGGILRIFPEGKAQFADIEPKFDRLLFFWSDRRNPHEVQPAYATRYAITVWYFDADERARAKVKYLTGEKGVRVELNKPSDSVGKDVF

On to `O=C(O)CNC(=O)c1ncc(Oc2ccccc2)cc1O` [Compound 1, 2-(3-hydroxy-5-phenoxy-2-pyridylformamido) acetic acid], for which the IC50 stood at 84 µM.
`Cc1cccc(Oc2cnc(C(=O)NCC(=O)O)c(O)c2)c1C` [Compound 5, 2-(5-(2,3-dimethylphenoxy)-3-hydroxypyridine-2-formamido) acetic acid] had an IC50 of 237 µM.
Under `O=C(O)CNC(=O)c1ncc(Oc2ccc3ccccc3c2)cc1O` [Compound 8, 2-(3-hydroxy-5-(naphthalen-2-oxo)pyridine-2-formamido) acetic acid] stands 91 µM; under `O=C(O)CNC(=O)c1ncc(Oc2cccc(F)c2F)cc1O` [Compound 9, 2-(5-(2,3-difluorophenoxy)-3-hydroxypyridine-2-formamido) acetic acid], 15 µM.
Under `Cc1ccc(Oc2cnc(C(=O)NCC(=O)O)c(O)c2)c(C)c1` [Compound 19, 2-(5-(2,4-dimethylphenoxy)-3-hydroxypyridine-2-formamido) acetic acid] stands 63 µM; under `O=C(O)CNC(=O)c1ncc(Oc2cccc(Cl)c2)cc1O` [Compound 22, 2-(5-(3-chlorophenoxy)-3-hydroxypyridine-2-formamido) acetic acid], 236 µM.
